How the values were obtained:
Assay in all cases: cells
CW-2 = assay type: functional, cell-based, Homo sapiens; conditions: Homo sapiens, CW-2;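 note: growth inhibition of CW-2 cells, read out by a cell viability assay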
Description: SANGER: Inhibition of human CW-2 cell growth in a cell viability assay.

DEL = assay type: functional, cell-based, Homo sapiens; conditions: Homo sapiens, DEL;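 note: growth inhibition of the human DEL cell line, read out with a cell viability assay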
Description: SANGER: Inhibition of human DEL cell growth in a cell viability assay.

DMS-114 = assay type: functional, cell-based, Homo sapiens; conditions: Homo sapiens, DMS-114
DSH1 = assay type: functional, cell-based, Homo sapiens; conditions: Homo sapiens, DSH1;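 note: growth inhibition of human DSH1 cells, measured with a cell viability readout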
Description: SANGER: Inhibition of human DSH1 cell growth in a cell viability assay.

DU-4475 = assay type: functional, cell-based, Homo sapiens; conditions: Homo sapiens, DU-4475
Description: SANGER: Inhibition of human DU-4475 cell growth in a cell viability assay.

EW-1 = assay type: functional, cell-based, Homo sapiens; conditions: Homo sapiens, EW-1
Description: SANGER: Inhibition of human EW-1 cell growth in a cell viability assay.

EW-13 = assay type: functional, cell-based, Homo sapiens; conditions: Homo sapiens, EW-13;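 note: growth inhibition of EW-13 cells, read out with a cell viability assay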
Description: SANGER: Inhibition of human EW-13 cell growth in a cell viability assay.

GB-1 = assay type: functional, cell-based, Homo sapiens; conditions: Homo sapiens, GB-1;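 note: growth of GB-1 cells judged by a viability assay, IC50 marks the concentration inhibiting growth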
Description: SANGER: Inhibition of human GB-1 cell growth in a cell viability assay.

GCIY = assay type: functional, cell-based, Homo sapiens; conditions: Homo sapiens, GCIY;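 note: growth inhibition of the human GCIY cell line, read out by a cell viability assay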
Description: SANGER: Inhibition of human GCIY cell growth in a cell viability assay.

GI-1 = assay type: functional, cell-based, Homo sapiens; conditions: Homo sapiens, GI-1;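 note: growth inhibition of human GI-1 cells, measured with a cell viability readout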
Description: SANGER: Inhibition of human GI-1 cell growth in a cell viability assay.

GOTO = assay type: functional, cell-based, Homo sapiens; conditions: Homo sapiens, GOTO;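 note: growth inhibition of GOTO cells, read out by a cell viability assay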
Description: SANGER: Inhibition of human GOTO cell growth in a cell viability assay.

GR-ST = assay type: functional, cell-based, Homo sapiens; conditions: Homo sapiens, GR-ST
Description: SANGER: Inhibition of human GR-ST cell growth in a cell viability assay.

HCE-T = assay type: functional, cell-based, Homo sapiens; conditions: Homo sapiens, HCE-T;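 note: cell viability assay read-out, reporting inhibition of HCE-T cell growth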
Description: SANGER: Inhibition of human HCE-T cell growth in a cell viability assay.

KG-1 = assay type: functional, cell-based, Homo sapiens; conditions: Homo sapiens, KG-1;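 note: growth inhibition of KG-1 cells, read out by a cell viability assay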
Description: SANGER: Inhibition of human KG-1 cell growth in a cell viability assay.

KINGS-1 = assay type: functional, cell-based, Homo sapiens; conditions: Homo sapiens, KINGS-1;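 note: cell viability assay measuring suppression of KINGS-1 cell growth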
Description: SANGER: Inhibition of human KINGS-1 cell growth in a cell viability assay.

KP-N-YS = assay type: functional, cell-based, Homo sapiens; conditions: Homo sapiens, KP-N-YS;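 note: cell viability assay measuring inhibition of cell line growth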
Description: SANGER: Inhibition of human KP-N-YS cell growth in a cell viability assay.

L-428 = assay type: functional, cell-based, Homo sapiens; conditions: Homo sapiens, L-428
Description: SANGER: Inhibition of human L-428 cell growth in a cell viability assay.

LAMA-84 = assay type: functional, cell-based, Homo sapiens; conditions: Homo sapiens, LAMA-84;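 note: growth inhibition of LAMA-84 cells, read out with a cell viability assay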
Description: SANGER: Inhibition of human LAMA-84 cell growth in a cell viability assay.

LOX IMVI = assay type: functional, cell-based, Homo sapiens; conditions: Homo sapiens, LOX IMVI
Description: SANGER: Inhibition of human LOXIMVI cell growth in a cell viability assay.

Lu-65 = assay type: functional, cell-based, Homo sapiens; conditions: Homo sapiens, Lu-65;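 note: growth inhibition of Lu-65 cancer cells, read out by a cell viability assay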
Description: SANGER: Inhibition of human LU-65 cell growth in a cell viability assay.

MLMA = assay type: functional, cell-based, Homo sapiens; conditions: Homo sapiens, MLMA;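 note: growth inhibition of MLMA cells (human), determined through a cell viability readout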
Description: SANGER: Inhibition of human MLMA cell growth in a cell viability assay.

MN-60 = assay type: functional, cell-based, Homo sapiens; conditions: Homo sapiens, MN-60;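 note: growth inhibition of the MN-60 cell line, determined with a cell viability assay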
Description: SANGER: Inhibition of human MN-60 cell growth in a cell viability assay.

MZ1-PC = assay type: functional, cell-based, Homo sapiens; conditions: Homo sapiens, MZ1-PC;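 note: cell viability assay measuring growth inhibition of human MZ1-PC cells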
Description: SANGER: Inhibition of human MZ1-PC cell growth in a cell viability assay.

NB13 = assay type: functional, cell-based, Homo sapiens; conditions: Homo sapiens, NB13;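 note: cell viability readout measuring growth inhibition of human NB13 cells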
Description: SANGER: Inhibition of human NB13 cell growth in a cell viability assay.

NCI-H1650 = assay type: functional, cell-based, Homo sapiens; conditions: Homo sapiens, NCI-H1650;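 note: growth inhibition of human NCI-H1650 cells measured by a cell viability assay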
Description: SANGER: Inhibition of human NCI-H1650 cell growth in a cell viability assay.

NCI-H209 = assay type: functional, cell-based, Homo sapiens; conditions: Homo sapiens, NCI-H209;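 note: growth inhibition of human NCI-H209 cells, measured by a cell viability assay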
Description: SANGER: Inhibition of human NCI-H209 cell growth in a cell viability assay.

NCI-H510A = assay type: functional, cell-based, Homo sapiens; conditions: Homo sapiens, NCI-H510A;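 note: growth inhibition of NCI-H510A cells, read out with a cell viability assay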
Description: SANGER: Inhibition of human NCI-H510A cell growth in a cell viability assay.

NCI-H82 = assay type: functional, cell-based, Homo sapiens; conditions: Homo sapiens, NCI-H82;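 note: growth inhibition of NCI-H82 cells, measured with a cell viability readout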
Description: SANGER: Inhibition of human NCI-H82 cell growth in a cell viability assay.

NH-12 = assay type: functional, cell-based, Homo sapiens; conditions: Homo sapiens, NH-12;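 note: growth inhibition of NH-12 cells, read out with a cell viability assay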
Description: SANGER: Inhibition of human NH-12 cell growth in a cell viability assay.

OCI-AML2 = assay type: functional, cell-based, Homo sapiens; conditions: Homo sapiens, OCI-AML2;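 note: growth inhibition of OCI-AML2 cells, read out with a cell viability assay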
Description: SANGER: Inhibition of human OCI-AML2 cell growth in a cell viability assay.

OVCAR-4 = assay type: functional, cell-based, Homo sapiens; conditions: Homo sapiens, OVCAR-4;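 note: growth inhibition of human OVCAR-4 cells, measured with a cell viability assay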
Description: SANGER: Inhibition of human OVCAR-4 cell growth in a cell viability assay.

QIMR-WIL = assay type: functional, cell-based, Homo sapiens; conditions: Homo sapiens, QIMR-WIL;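 note: growth inhibition of QIMR-WIL cells, read out with a cell viability assay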
Description: SANGER: Inhibition of human QIMR-WIL cell growth in a cell viability assay.

Ramos-2G6-4C10 = assay type: functional, cell-based, Homo sapiens; conditions: Homo sapiens, Ramos-2G6-4C10;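 note: growth inhibition of the cell line, measured by a cell viability read-out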
Description: SANGER: Inhibition of human Ramos-2G6-4C10 cell growth in a cell viability assay.

SF-539 = assay type: functional, cell-based, Homo sapiens; conditions: Homo sapiens, SF-539;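 note: Read-out is a cell viability assay, with IC50 reflecting inhibition of cell growth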
Description: SANGER: Inhibition of human SF539 cell growth in a cell viability assay.

SHP77 = assay type: functional, cell-based, Homo sapiens, SHP-77; conditions: Homo sapiens, SHP77;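 note: growth inhibition of human SHP-77 cells measured by a cell viability assay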
Description: SANGER: Inhibition of human SHP-77 cell growth in a cell viability assay.

SK-MEL-2 = assay type: functional, cell-based, Homo sapiens; conditions: Homo sapiens, SK-MEL-2;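 note: growth inhibition of human SK-MEL-2 cells measured with a cell viability assay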
Description: SANGER: Inhibition of human SK-MEL-2 cell growth in a cell viability assay.

SK-NEP-1 = assay type: functional, cell-based, Homo sapiens; conditions: Homo sapiens, SK-NEP-1;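 note: growth inhibition of human SK-NEP-1 cells, read out by a cell viability assay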
Description: SANGER: Inhibition of human SK-NEP-1 cell growth in a cell viability assay.

TE-1 = assay type: functional, cell-based, Homo sapiens; conditions: Homo sapiens, TE-1;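 note: growth inhibition of the human TE-1 cell line, read out with a cell viability assay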
Description: SANGER: Inhibition of human TE-1 cell growth in a cell viability assay.

A3-KAW = assay type: functional, cell-based, Homo sapiens; conditions: Homo sapiens, A3-KAW;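 note: growth inhibition of human A3-KAW cells, read out with a cell viability assay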
Description: SANGER: Inhibition of human A3-KAW cell growth in a cell viability assay.

BB30-HNC = assay type: functional, cell-based, Homo sapiens; conditions: Homo sapiens, BB30-HNC;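 note: growth inhibition of the cultured cell line, read out by a cell viability assay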
Description: SANGER: Inhibition of human BB30-HNC cell growth in a cell viability assay.

TGBC1TKB = assay type: functional, cell-based, Homo sapiens; conditions: Homo sapiens, TGBC1TKB;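 note: growth inhibition of TGBC1TKB cells, read out by a cell viability assay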
Description: SANGER: Inhibition of human TGBC1TKB cell growth in a cell viability assay.

U-266 = assay type: functional, cell-based, Homo sapiens; conditions: Homo sapiens, U-266
Description: SANGER: Inhibition of human U-266 cell growth in a cell viability assay.

UACC-257 = assay type: functional, cell-based, Homo sapiens; conditions: Homo sapiens, UACC-257
Description: SANGER: Inhibition of human UACC-257 cell growth in a cell viability assay.

no-10 = assay type: functional, cell-based, Homo sapiens; conditions: Homo sapiens;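 note: growth inhibition of no-10 cells, read out with a cell viability assay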
Description: SANGER: Inhibition of human no-10 cell growth in a cell viability assay.

KARPAS-45 = assay type: functional, cell-based, Homo sapiens; conditions: Homo sapiens, KARPAS-45;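 note: inhibition of cell line growth, read out through a viability assay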
Description: SANGER: Inhibition of human KARPAS-45 cell growth in a cell viability assay.

SBC-1 = assay type: functional, cell-based, Homo sapiens; conditions: Homo sapiens, SBC-1;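 note: cell viability assay measuring growth inhibition of the SBC-1 cell line, IC50 being the concentration that halves growth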
Description: SANGER: Inhibition of human SBC-1 cell growth in a cell viability assay.

A498 = assay type: functional, cell-based, Homo sapiens; conditions: Homo sapiens, A498;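 note: growth inhibition of human A498 cells, read out with a cell viability assay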
Description: SANGER: Inhibition of human A498 cell growth in a cell viability assay.

C#Cc1cccc(Nc2ncnc3cc(OCCOC)c(OCCOC)cc23)c1 [ERLOTINIB]
IC50 (CW-2): > 2 µM | IC50 (DEL): > 2 µM | IC50 (DMS-114): > 2 µM | IC50 (DSH1): > 2 µM | IC50 (DU-4475): > 2 µM | IC50 (EW-1): > 2 µM | IC50 (EW-13): > 2 µM | IC50 (GB-1): > 2 µM | IC50 (GCIY): > 2 µM | IC50 (GI-1): > 2 µM | IC50 (GOTO): > 2 µM | IC50 (GR-ST): > 2 µM | IC50 (HCE-T): > 2 µM | IC50 (KG-1): > 2 µM | IC50 (KINGS-1): > 2 µM | IC50 (KP-N-YS): > 2 µM | IC50 (L-428): > 2 µM | IC50 (LAMA-84): > 2 µM | IC50 (LOX IMVI): > 2 µM | IC50 (Lu-65): > 2 µM | IC50 (MLMA): > 2 µM | IC50 (MN-60): > 2 µM | IC50 (MZ1-PC): > 2 µM | IC50 (NB13): > 2 µM | IC50 (NCI-H1650): > 2 µM | IC50 (NCI-H209): > 2 µM | IC50 (NCI-H510A): > 2 µM | IC50 (NCI-H82): > 2 µM | IC50 (NH-12): > 2 µM | IC50 (OCI-AML2): > 2 µM | IC50 (OVCAR-4): > 2 µM | IC50 (QIMR-WIL): > 2 µM | IC50 (Ramos-2G6-4C10): > 2 µM | IC50 (SF-539): > 2 µM | IC50 (SHP77): > 2 µM | IC50 (SK-MEL-2): > 2 µM | IC50 (SK-NEP-1): > 2 µM | IC50 (TE-1): 1.4 µM | IC50 (A3-KAW): > 2 µM | IC50 (BB30-HNC): 0.148 µM | IC50 (TGBC1TKB): > 2 µM | IC50 (U-266): > 2 µM | IC50 (UACC-257): > 2 µM | IC50 (no-10): > 2 µM

COc1cc(N2CCN(C)CC2)ccc1Nc1ncc2c(n1)N(C)c1ccccc1C(=O)N2C
IC50 (CW-2): > 8 µM | IC50 (DEL): > 8 µM | IC50 (DMS-114): > 8 µM | IC50 (DSH1): > 8 µM | IC50 (DU-4475): > 8 µM | IC50 (EW-1): 3.84 µM | IC50 (EW-13): > 8 µM | IC50 (GB-1): > 8 µM | IC50 (GCIY): > 8 µM | IC50 (GI-1): > 8 µM | IC50 (GOTO): > 8 µM | IC50 (GR-ST): 7.68 µM | IC50 (HCE-T): > 8 µM | IC50 (KARPAS-45): 3.97 µM | IC50 (KG-1): > 8 µM | IC50 (KINGS-1): > 8 µM | IC50 (KP-N-YS): > 8 µM | IC50 (L-428): > 8 µM | IC50 (LAMA-84): > 8 µM | IC50 (LOX IMVI): > 8 µM | IC50 (Lu-65): > 8 µM | IC50 (MLMA): > 8 µM | IC50 (MN-60): > 8 µM | IC50 (MZ1-PC): > 8 µM | IC50 (NB13): > 8 µM | IC50 (NCI-H1650): > 8 µM | IC50 (NCI-H209): > 8 µM | IC50 (NCI-H510A): > 8 µM | IC50 (NCI-H82): > 8 µM | IC50 (NH-12): > 8 µM | IC50 (OCI-AML2): 3.6 µM | IC50 (OVCAR-4): > 8 µM | IC50 (QIMR-WIL): 6.32 µM | IC50 (Ramos-2G6-4C10): 5.67 µM | IC50 (SBC-1): > 8 µM | IC50 (SF-539): > 8 µM | IC50 (SHP77): > 8 µM | IC50 (SK-MEL-2): > 8 µM | IC50 (SK-NEP-1): > 8 µM | IC50 (TE-1): > 8 µM | IC50 (A3-KAW): 4.28 µM | IC50 (A498): > 8 µM | IC50 (BB30-HNC): 4.51 µM | IC50 (TGBC1TKB): > 8 µM | IC50 (U-266): > 8 µM | IC50 (UACC-257): 7.11 µM | IC50 (no-10): > 8 µM

Source: ChEMBL document CHEMBL1201861, “Genomics of Drug Sensitity in Cancer screening data, Wellcome Trust Sanger Institute”
